In patent US7081353B2, “Drug susceptibility measurement method and apparatus thereof” (Jikei University School of Medicine, priority 2000, dated 2006):

System: S. epidermidis (Staphilococcus epidermidis)
Test: MIC by conventional measurement method, S. epidermidis
Format: cell-based
Conditions: 106 cfu/ml, necessary time 18 hours
Description: The drug susceptibility measurement results are obtained by employing S. epidermidis (Staphilococcus epidermidis), […] (Genus Enterococcus) as bacteria, and by determining an amount of bacteria to be 10^6 cfu/ml. And, PCG (Penicillin G), IPM (Imipenem), MINO (Minocycline), EM (Erythromycin), OFLX (Ofloxacin), ST (Sulfamethoxazole Trimethoprim), […]) are employed as drug.

(a) MIC values (minimum inhibitory interfering concentration) obtained by a conventional measurement method	SMILES
≦0.12 g g/ml	CN(C)c1ccc(O)c2c1C[C@H]1C[C@H]3[C@H](N(C)C)C(O)=C(C(N)=O)C(=O)[C@@]3(O)C(O)=C1C2=O [MINO, Minocycline]
≦1 g g/ml	CC1COc2c(N3CCN(C)CC3)c(F)cc3c(=O)c(C(=O)O)cn1c23 (centres unmarked) [OFLX, Ofloxacin]

Further lines, the compound ahead of its results:

SMILES	(a) MIC values (minimum inhibitory interfering concentration) obtained by a conventional measurement method
CC[C@H]1OC(=O)[C@H](C)[C@@H](O[C@H]2C[C@@](C)(OC)[C@@H](O)[C@H](C)O2)[C@H](C)[C@@H](O[C@@H]2O[C@H](C)C[C@H](N(C)C)[C@H]2O)[C@](C)(O)C[C@@H](C)C(=O)[C@H](C)[C@@H](O)[C@]1(C)O [EM, Erythromycin]	≦0.12 g g/ml
C[C@@H](O)[C@H]1C(=O)N2C(C(=O)O)=C(SCCN=CN)C[C@H]12 [IPM, Imipenem]	≦1 g g/ml
CN[C@H](CC(C)C)C(=O)N[C@H]1C(=O)N[C@@H](CC(N)=O)C(=O)N[C@H]2C(=O)N[C@H]3C(=O)N[C@H](C(=O)N[C@H](C(=O)O)c4cc(O)cc(O)c4-c4cc3ccc4O)[C@H](O)c3ccc(c(Cl)c3)Oc3cc2cc(c3O[C@@H]2O[C@H](CO)[C@@H](O)[C@H](O)[C@H]2O[C@H]2C[C@](C)(N)[C@H](O)[C@H](C)O2)Oc2ccc(cc2Cl)[C@H]1O [VCM, Vancomycin]	≦1 g g/ml
